# Source: patent US4801534A, “Water soluble zanthylium derivative substrates” (Coulter Electronics, Inc., priority 1987, dated 1989)
# Experiments:
# Format in all cases: biochemical
# Thrombin = target: T1, Thrombin (Homo sapiens, UniProt P00734); experiment: Thrombin reaction rates, spectrophotometric, change in absorbance at 496 nm; settings: 37° C., 0.10M ACES pH 7.0, 0.05M KCl
# T1 construct: Thrombin reaction rates were determined with the water soluble substrate
# Method: Identical test conditions were used including temperature 37° C., volume 1.0 ml., and buffer 0.10M ACES pH 7.0, with 0.05M KCl. Since sarcosyl (Sar) and carbobenzyloxy (Cbz) have similar molecular weights, both were tested at 100 ug/ml.
# [1] = target: T2, Purified human alpha-thrombin (Homo sapiens, UniProt P00734); experiment: Spectrophotometric assay of thrombin with (Pyro-Pro-Arg)2-Rhodamine 110; settings: substrate 78 ug/mL, 37° C., pH 8.0
# T2 construct: Purified human alpha-thrombin; purchased Dr. John Fenton, N.Y. State Dept. of Health
# Method: Dose response curves were determined for three different concentrations of thrombin by measuring absorbance increases at 468 nm and 496 nm. Working thrombin dilutions were prepared as follows: Purified human alpha-thrombin, Dr. John Fenton, N.Y. State Dept. of Health, was diluted to 1.04 U/mL, 0.52 U/mL and 0.25 U/mL in 0.05M HEPES, pH 8.0, with 0.25M NaCl and maintained at 4° C. The substrate, (Pyro-Pro-Arg)2 -Rhodamine 110, was dissolved to 78 ug/mL in 0.20M HEPES, pH 8.0, with 0.3M KCl. Disposable acrylic cuvettes with 1 cm light path, Centaur Sciences, Inc. were used. A one mL aliquot of substrate was pipetted into a cuvette and warmed to 37° C. in a heating block. A one mL sample of a working thrombin dilution was added to the cuvette. After mixing the thrombin and substrate, absorbances at 468 nm and 496 nm were determined for 30 seconds with a Hewlett-Packard Model 8450A spectrophotometer. The increased absorbances over the timed intervals were: […]
# coagulation factor IX = experiment: Fluorescent coagulation factor IX assay based on APTT, substrate detects thrombin generation
# Method: (§1) Fluorescent assays for coagulation factors VIII and IX, based on the activated partial thromboplastin time (APTT) assay, were performed with the substrate (Sar-Pro-Arg)2 -Rhodamine 110. The synthetic substrate was used to detect thrombin generation, substituting for the natural substrate fibrinogen present in both human and animal plasmas. Standard calibration curves were constructed with normal plasma, Thromboscreen™ from Curtin Matheson Scientific, which was used to correct factor VIII and IX deficient plasmas, George King Biomedical. The APTT reagent contained purified soybean phospholipids and ellagic acid activator, Dade Diagnostics. […] A Turner model 430 spectrofluorometer with a temperature controlled sample cell holder (37° C.) was used to make the kinetic fluorescent measurements. Excitation and emission wavelengths were set at 468 nm and 525 nm, respectively. Glass test tubes were used to perform the plasma activations and disposable acrylic cuvettes, Centaur Sciences, Inc., were used for the fluorescent measurements.
# (§2) A 100 uL aliquot of 0.85% saline or normal plasma diluted in saline was added to a test tube followed by the sequential addition of 100 uL of factor deficient plasma and 100 uL of the APTT reagent. The test tube was incubated in a heating block at 37° C. for 2 minutes, at which time 100 uL of 25 mM CaCl2 was added and the incubation was continued for an additional 30 seconds. The incubation mixture was transferred to a cuvette containing 2.0 mL of the substrate solution prewarmed to 37° C. and the fluorescent rate measured. Linear dose response curves were obtained for factors VIII and IX between 1% and 100% of normal: […]
# coagulation factor VIII = experiment: Fluorescent coagulation factor VIII assay based on APTT, substrate detects thrombin generation
# Method: as §1, §2
# [2] = substrate 80 micromolar, 15% ethanol for the Cbz substrate
# [3] = Factor level 1 % normal, plasma dilution 1:250
# [4] = Factor level 10 % normal, plasma dilution 1:25
# [5] = Factor level 100 % normal, plasma dilution 1:2.5
# [6] = Factor level <1 % normal (no plasma dilution), ex 468 nm, em 525 nm, quinine sulfate = 1.0
Substance,"Change In Absorbance, 496 nm/Unit Thrombin/mL (Thrombin; [2])","Absorbance, 0-30 seconds, 468 nm ([1]; Thrombin 0.26 U/mL)","Absorbance, 0-30 seconds, 496 nm ([1]; Thrombin 0.26 U/mL)","Absorbance, 0-30 seconds, 468 nm ([1]; Thrombin 0.52 U/mL)","Absorbance, 0-30 seconds, 496 nm ([1]; Thrombin 0.52 U/mL)","Absorbance, 0-30 seconds, 468 nm ([1]; Thrombin 1.04 U/mL)","Absorbance, 0-30 seconds, 496 nm ([1]; Thrombin 1.04 U/mL)","Change In Absorbance, 496 nm/Unit Thrombin/mL (Thrombin; substrate 800 micromolar)","Relative Fluorescence, Factor IX (coagulation factor IX; [3])","Relative Fluorescence, Factor IX (coagulation factor IX; [4])","Relative Fluorescence, Factor IX (coagulation factor IX; [5])","Relative Fluorescence, Factor IX (coagulation factor IX; [6])","Relative Fluorescence, Factor VIII (coagulation factor VIII; [3])","Relative Fluorescence, Factor VIII (coagulation factor VIII; [4])","Relative Fluorescence, Factor VIII (coagulation factor VIII; [5])","Relative Fluorescence, Factor VIII (coagulation factor VIII; [6])"
"(Cbz-L-Pro-Arg)2 -Rhodamine 110 [(Cbz-Pro-Arg)2 -Rhodamine 110, reference compound]",0.122,–,–,–,–,–,–,–,–,–,–,–,–,–,–,–
(H-L-Pyro-Pro-Arg)2 -Rhodamine 110 [(Pyro-Pro-Arg)2 -Rhodamine 110],–,0.0461,0.0462,0.0912,0.0860,0.1766,0.1671,–,–,–,–,–,–,–,–,–
(H-Sar-Pro-Arg)2 -Rhodamine 110 [(Sar-Pro-Arg)2 -Rhodamine 110],1.700,–,–,–,–,–,–,2.872,0.127,0.154,0.333,0.121,0.121,0.148,0.333,0.119
